Laboratory results: patent US20220016101A1 (ACADIA Pharmaceuticals Inc., priority 2018, published 2022)

System: patients with MDD and an inadequate response to an SSRI or SNRI
Assay: Massachusetts General Hospital Sexual Functioning Index (MGH-SFI), Study ACP-103-042
Format: in vivo, human
From the text: “Massachusetts General Hospital Sexual Functioning Index (MGH-SFI)” is described, for instance, in Labbate and Lare, 2001, Psychother Psychosom. 70(4):221-225. This is a patient facing questionnaire that quantifies sexual dysfunction into 5 functional domains (“interest in sex,” “sexual arousal,” “ability to achieve orgasm,” “ability to maintain erection” (males only), and “sexual satisfaction”). Patients rate each item using a 6-point scale ranging from 1 (good function) to 6 (poor function). High scores indicate poor sexual functioning. […] The determination of the subject's status and eligibility for randomization in Stage 2 was made in a double-blind manner. […] Sexual functioning was assessed using the Massachusetts General Hospital Sexual Functioning Index or MGH-SFI (Labbate and Lare, 2001, Psychother Psychosom. 70(4):221-225). This is a patient facing questionnaire that quantifies sexual dysfunction into 5 functional domains (“interest in sex,” “sexual arousal,” “ability to achieve orgasm,” “ability to maintain erection” [malesonly], and “sexual satisfaction”). Patients rate each item using a 6-point scale ranging from 1 (good function) to 6 (poor function). The time frame for this scale is the past month. This scale was administered at baseline and Week 5 in both stages of the study. High scores indicate poor sexual functioning. In ACP-103-042 the mean scores for MGH-SFI at Baseline was calculated over all 5 domains for males and the 4 domains for females. For MGH-SFI (follow-up version) at Study Weeks 5 and 10, the mean was calculated in the same way as MGH-SFI at Baseline. […] Tables 10-27 summarize the detailed data of MGH-SFI individual items of the overall study group (Tables 10-15), the subgroup of age of <=50 (Tables 16-21) and the subgroup of age of >50 (Table 21-26). In Tables 9-26, ANCOVA=analysis of covariance; OC=observed cases; LSM=least squares mean; CI=confidence interval; SD=standard deviation; SE=standard error. Stage 1: Baseline=Study Week 0, Week 5=Study Week 5; Stage 2: Baseline=Study Week 5, Week 5=Study Weeks 10. LSM from the stage-specific ANCOVA analysis with the change from baseline as the outcome, treatment group as a factor, and the corresponding Baseline value as a covariate. 2-sided p-value for treatment difference from the stage-specific ANCOVA analysis. An treatment effect size (Cohen's d) is calculated using the formula: Effect Size=Least Square mean difference between PIM and PBO/SD. The corresponding 95% confidence interval for an effect size is calculated based on the theoretical probability distribution of the effect size. […] Tables 10-15 and 28-38 summarize the detailed data of MGH-SFI individual items of the overall study group (Tables 10-15), the female subgroup (Tables 33-37) and the male subgroup (Table 38-43). An treatment effect size (Cohen's d) is calculated using the formula: Effect Size=Least Square mean difference between PIM and PBO/SD. The corresponding 95% confidence interval for an effect size is calculated based on the theoretical probability distribution of the effect size. In Tables 10-15 and 28-38, ANCOVA=analysis of covariance; OC=observed cases; LSM=least squares mean; CI=confidence interval; SD=standard deviation; SE=standard error. Stage 1: Baseline=Study Week 0, Week 5=Study Week 5; Stage 2: Baseline=Study Week 5, Week 5=Study Weeks 10. LSM from the stage-specific ANCOVA analysis with the change from baseline as the outcome, treatment group as a factor, and the corresponding Baseline value as a covariate. 2-sided p-value for treatment difference from the stage-specific ANCOVA analysis. An treatment effect size (Cohen's d) is calculated using the formula: Effect Size=Least Square mean difference between PIM and PBO/SD. The corresponding 95% confidence interval for an effect size is calculated based on the theoretical probability distribution of the effect size.

[1] = subgroup <=50 years old, Stage 1, PIM 34 mg vs placebo
[2] = subgroup <=50 years old, Stage 2, PIM 34 mg
[3] = subgroup <=50 years old, Stage 2, PIM 34 mg vs placebo
[4] = subgroup >50 years old, Stage 1, PIM 34 mg
[5] = subgroup >50 years old, Stage 1, PIM 34 mg vs placebo

Structure (SMILES): CC(C)COc1ccc(CNC(=O)N(Cc2ccc(F)cc2)C2CCN(C)CC2)cc1 [pimavanserin, N-(4-Fluorophenylmethyl)-N-(1-methylpiperidin-4-yl)-N′-(4-(2-methylpropyloxy)phenylmethyl)carbamide]
- MGH-SFI 05: Overall Sexual Satisfaction, Effect Size (Cohen's d) [1]: 0.304
- MGH-SFI 06: Overall Improvement Since Last Medication Change, Effect Size (Cohen's d) [1]: 0.622
- MGH-SFI 04: (Men) Ability to Get and Maintain an Erection, Change from Baseline to Week 5 Mean (SE) [2]: −0.3 (0.48)
- MGH-SFI 04: (Men) Ability to Get and Maintain an Erection, Change from Baseline to Week 5 Median [2]: −0.5
- MGH-SFI 04: (Men) Ability to Get and Maintain an Erection, Week 5 Mean (SE) [2]: 3.5 (0.50)
- MGH-SFI 04: (Men) Ability to Get and Maintain an Erection, Week 5 Median [2]: 4.0
- MGH-SFI 05: Overall Sexual Satisfaction, Change from Baseline to Week 5 Mean (SE) [2]: −0.6 (0.34)
- MGH-SFI 05: Overall Sexual Satisfaction, Change from Baseline to Week 5 Median [2]: −1.0
- MGH-SFI 05: Overall Sexual Satisfaction, Week 5 Mean (SE) [2]: 4.0 (0.39)
- MGH-SFI 05: Overall Sexual Satisfaction, Week 5 Median [2]: 4.0
- MGH-SFI 06: Overall Improvement Since Last Medication Change, Week 5 Mean (SE) [2]: 3.8 (0.33)
- MGH-SFI 06: Overall Improvement Since Last Medication Change, Week 5 Median [2]: 4.0
- MGH-SFI 04: (Men) Ability to Get and Maintain an Erection, Effect Size (Cohen's d) [3]: −0.526
- MGH-SFI 05: Overall Sexual Satisfaction, Effect Size (Cohen's d) [3]: 0.405
- MGH-SFI 06: Overall Improvement Since Last Medication Change, Effect Size (Cohen's d) [3]: 0.043
- MGH-SFI 02: Ability to Get Sexually Aroused or Excited, Change from Baseline to Week 5 Mean (SE) [4]: −0.9 (0.21)
- MGH-SFI 02: Ability to Get Sexually Aroused or Excited, Change from Baseline to Week 5 Median [4]: −1.0
- MGH-SFI 02: Ability to Get Sexually Aroused or Excited, Week 5 Mean (SE) [4]: 3.9 (0.32)
- MGH-SFI 02: Ability to Get Sexually Aroused or Excited, Week 5 Median [4]: 4.0
- MGH-SFI 03: Ability to Achieve Orgasm, Change from Baseline to Week 5 Mean (SE) [4]: −1.2 (0.33)
- MGH-SFI 03: Ability to Achieve Orgasm, Change from Baseline to Week 5 Median [4]: 0.0
- MGH-SFI 03: Ability to Achieve Orgasm, Week 5 Mean (SE) [4]: 3.8 (0.33)
- MGH-SFI 03: Ability to Achieve Orgasm, Week 5 Median [4]: 4.0
- MGH-SFI 04: (Men) Ability to Get and Maintain an Erection, Change from Baseline to Week 5 Mean (SE) [4]: 0.8 (0.48)
- MGH-SFI 04: (Men) Ability to Get and Maintain an Erection, Change from Baseline to Week 5 Median [4]: 0.5
- MGH-SFI 04: (Men) Ability to Get and Maintain an Erection, Week 5 Mean (SE) [4]: 5.0 (0.71)
- MGH-SFI 04: (Men) Ability to Get and Maintain an Erection, Week 5 Median [4]: 5.5
- MGH-SFI 05: Overall Sexual Satisfaction, Change from Baseline to Week 5 Mean (SE) [4]: −1.1 (0.34)
- MGH-SFI 05: Overall Sexual Satisfaction, Change from Baseline to Week 5 Median [4]: 0.0
- MGH-SFI 05: Overall Sexual Satisfaction, Week 5 Mean (SE) [4]: 4.1 (0.34)
- MGH-SFI 05: Overall Sexual Satisfaction, Week 5 Median [4]: 4.0
- MGH-SFI 06: Overall Improvement Since Last Medication Change, Week 5 Mean (SE) [4]: 3.3 (0.24)
- MGH-SFI 06: Overall Improvement Since Last Medication Change, Week 5 Median [4]: 4.0
- MGH-SFI 02: Ability to Get Sexually Aroused or Excited, Effect Size (Cohen's d) [5]: 0.660
- MGH-SFI 03: Ability to Achieve Orgasm, Effect Size (Cohen's d) [5]: 0.869
